Measurements taken from publication PMC10569036.

Columns and labels:
[1] = shake flask on a mixture of 185; loss from the water phase only; LC-QTOF peak areas; conditions: room
[2] = shake flask on a mixture of 185; loss from the water phase only; LC-Orbitrap peak areas; conditions: room

Structure (SMILES)	log partition 1-octanol / HPLC water, unbuffered, traces of methanol / DMSO [2] [log10]	log partition butyl acetate / HPLC water, unbuffered, traces of methanol / DMSO [2] [log10]	log partition chloroform / HPLC water, unbuffered, traces of methanol / DMSO [2] [log10]	log partition cyclohexane / HPLC water, unbuffered, traces of methanol / DMSO [2] [log10]	log partition dichloromethane / HPLC water, unbuffered, traces of methanol / DMSO [2] [log10]	log partition n-hexane / HPLC water, unbuffered, traces of methanol / DMSO [2] [log10]	log partition n-octane / HPLC water, unbuffered, traces of methanol / DMSO [2] [log10]	log partition n-undecane / HPLC water, unbuffered, traces of methanol / DMSO [2] [log10]	log partition oleylalcohol / HPLC water, unbuffered, traces of methanol / DMSO [2] [log10]	log partition toluene / HPLC water, unbuffered, traces of methanol / DMSO [2] [log10]	log partition 1-octanol / HPLC water, unbuffered, traces of methanol / DMSO [1] [log10]	log partition butyl acetate / HPLC water, unbuffered, traces of methanol / DMSO [1] [log10]	log partition chloroform / HPLC water, unbuffered, traces of methanol / DMSO [1] [log10]	log partition cyclohexane / HPLC water, unbuffered, traces of methanol / DMSO [1] [log10]	log partition dichloromethane / HPLC water, unbuffered, traces of methanol / DMSO [1] [log10]	log partition n-hexane / HPLC water, unbuffered, traces of methanol / DMSO [1] [log10]	log partition n-octane / HPLC water, unbuffered, traces of methanol / DMSO [1] [log10]	log partition n-undecane / HPLC water, unbuffered, traces of methanol / DMSO [1] [log10]	log partition oleylalcohol / HPLC water, unbuffered, traces of methanol / DMSO [1] [log10]	log partition toluene / HPLC water, unbuffered, traces of methanol / DMSO [1] [log10]
CN/C(=N/[N+](=O)[O-])NCC1CCOC1 (stereo not drawn)	0.006708	0.08365	0.01252	-0.8947	0.2723	-0.6643	-1.349	-1.639	-0.3931	-0.3042	-0.7277	-1.391	-0.45	-1.158	-0.07832	-1.181	-1.698	-1.902	-1.007	-1.236
COC(=O)C(C)N(C(=O)c1ccco1)c1c(C)cccc1C (stereo not drawn)	1.653	2.039	1.758	–	1.796	–	–	–	1.315	1.918	2.113	2.322	2.434	–	2.829	–	–	–	2.215	2.516
CN(C1CCCCC1)S(=O)(=O)c1ccccc1N	1.192	0.997	0.5005	0.7696	1.312	0.8609	0.7922	0.7687	1.252	0.9027	-0.8134	0.2235	0.4748	-0.5397	0.1793	-0.5682	-0.5115	-0.8537	-0.9123	-0.3194
Cc1ccc([N+](=O)[O-])cc1S(=O)(=O)O	1.274	1.798	2.228	0.6608	2.4	0.3087	0.3589	0.261	0.9359	1.703	2.399	2.641	2.843	0.5479	2.477	0.3824	0.4393	0.4122	2.608	2.304

The next lines start with results.

log partition 1-octanol / HPLC water, unbuffered, traces of methanol / DMSO [2] [log10]	log partition butyl acetate / HPLC water, unbuffered, traces of methanol / DMSO [2] [log10]	log partition chloroform / HPLC water, unbuffered, traces of methanol / DMSO [2] [log10]	log partition cyclohexane / HPLC water, unbuffered, traces of methanol / DMSO [2] [log10]	log partition dichloromethane / HPLC water, unbuffered, traces of methanol / DMSO [2] [log10]	log partition n-hexane / HPLC water, unbuffered, traces of methanol / DMSO [2] [log10]	log partition n-octane / HPLC water, unbuffered, traces of methanol / DMSO [2] [log10]	log partition n-undecane / HPLC water, unbuffered, traces of methanol / DMSO [2] [log10]	log partition oleylalcohol / HPLC water, unbuffered, traces of methanol / DMSO [2] [log10]	log partition toluene / HPLC water, unbuffered, traces of methanol / DMSO [2] [log10]	Structure (SMILES)	log partition 1-octanol / HPLC water, unbuffered, traces of methanol / DMSO [1] [log10]	log partition butyl acetate / HPLC water, unbuffered, traces of methanol / DMSO [1] [log10]	log partition chloroform / HPLC water, unbuffered, traces of methanol / DMSO [1] [log10]	log partition cyclohexane / HPLC water, unbuffered, traces of methanol / DMSO [1] [log10]	log partition dichloromethane / HPLC water, unbuffered, traces of methanol / DMSO [1] [log10]	log partition n-hexane / HPLC water, unbuffered, traces of methanol / DMSO [1] [log10]	log partition n-octane / HPLC water, unbuffered, traces of methanol / DMSO [1] [log10]	log partition n-undecane / HPLC water, unbuffered, traces of methanol / DMSO [1] [log10]	log partition oleylalcohol / HPLC water, unbuffered, traces of methanol / DMSO [1] [log10]	log partition toluene / HPLC water, unbuffered, traces of methanol / DMSO [1] [log10]
1.279	1.476	1.242	1.195	1.399	1.051	1.355	0.8718	1.396	1.5	CCCOC(=O)c1ccc(C(=O)OCCC)nc1	2.274	2.305	2.347	2.074	2.554	2.244	2.086	2.019	2.412	2.485
3.752	4.674	1.201	2.491	2.846	1.664	1.841	2.234	3.336	3.533	O=C(Nc1ccccc1-c1ccc(Cl)cc1)c1cccnc1Cl	2.544	2.85	2.789	1.857	2.321	1.024	1.335	1.129	1.78	2.524
0.591	0.6709	-0.4936	–	-0.3897	–	–	–	0.6552	-1.194	NC(=O)Nc1ccc(Cl)cc1	1.214	0.7995	-0.1363	–	-0.2421	–	–	–	1.051	-0.9053
1.455	1.635	1.002	0.009613	1.347	-0.1226	-0.1369	-0.387	1.068	0.7892	Cc1oncc1C(=O)Nc1ccc(C(F)(F)F)cc1	2.576	3.034	2.805	0.2033	2.511	0.07872	0.112	0.08618	2.816	2.381
